Measurements published in article PMC8310277 (Viruses, 2021).
Where a SMILES comes first, the peptide text is derived from it. Bridges are numbered along the chain shown (N, C = ends).

What was measured:
[1] = tested on: pseudotyped virus expressing SARS-CoV-2 S protein from the B.1.1.7 variant; format: cell-based
[2] = tested on: pseudotyped virus expressing SARS-CoV-2 S protein from the P.1 variant; format: cell-based

SMILES: CC[C@H](C)[C@@H]1NC(=O)[C@H](CCC(=O)O)NC(=O)[C@@H]2CSSC[C@@H]3NC(=O)[C@H](Cc4ccc(O)cc4)NC(=O)[C@@H](NC(=O)[C@@H](NC(=O)[C@H](C)N)[C@@H](C)O)CSSC[C@@H](C(=O)N[C@@H](CCCNC(=N)N)C(=O)O)NC(=O)[C@H](CSSC[C@H](NC(=O)[C@H](CCCNC(=N)N)NC(=O)CNC(=O)[C@H]([C@@H](C)O)NC(=O)[C@H](CCCNC(=N)N)NC3=O)C(=O)N[C@@H](C)C(=O)N[C@@H]([C@@H](C)O)C(=O)N[C@@H](CCCNC(=N)N)C(=O)N[C@@H](CCC(=O)O)C(=O)N[C@@H](CO)C(=O)N[C@@H](CC(C)C)C(=O)N[C@@H](CO)C(=O)NCC(=O)N[C@@H](C(C)C)C(=O)N2)NC(=O)[C@H](CC(C)C)NC(=O)[C@H](CCCNC(=N)N)NC(=O)[C@H](Cc2ccc(O)cc2)NC(=O)[C@H](CC(C)C)NC(=O)[C@H](CCCNC(=N)N)NC(=O)CNC(=O)[C@H](CO)NC1=O [HD5] (H-ATCYCRTGRCATRESLSGVCEISGRLYRLCCR-OH; disulfide 3-31, 5-20, 10-30 (inferred); N-terminus and C-terminus assumed)
- effect on B.1.1.7 variant (in words) [1]: moderate antiviral activity
- inhibition of B.1.1.7 infection ([1]; 50 μg/mL): 32%
- effect on P.1 variant (in words) [2]: suppressed the P.1 variant in a dose-dependent manner
- suppression of P1 infection ([2]; 50 μg/mL): 72%
